Consider 27 compounds from US12378224B2 (Dong-A Socio Holdings Co., Ltd., priority 2016, dated 2025).

In this assay the target is human c-MER catalytic domain (Homo sapiens (Human), UniProt Q12866). The experiment in a line: TR-FRET Kinase Activity Biochemical Assay (LanthaScreen). To be noted: 10 uM ATP, 1 hour, kinase not given. The procedure, abridged:
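Activity was quantified as the ratio of 495 nm to 520 nm emission (excitation 340 nm) in a LanthaScreen TR-FRET format. The enzyme was the human c-MER catalytic domain, and the substrate was fluorescein-poly-GT. Detection used 2 nM Tb anti-phosphotyrosine antibody for 30 min after termination with 10 mM EDTA.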

Chain of human c-MER catalytic domain (Q12866 587-858): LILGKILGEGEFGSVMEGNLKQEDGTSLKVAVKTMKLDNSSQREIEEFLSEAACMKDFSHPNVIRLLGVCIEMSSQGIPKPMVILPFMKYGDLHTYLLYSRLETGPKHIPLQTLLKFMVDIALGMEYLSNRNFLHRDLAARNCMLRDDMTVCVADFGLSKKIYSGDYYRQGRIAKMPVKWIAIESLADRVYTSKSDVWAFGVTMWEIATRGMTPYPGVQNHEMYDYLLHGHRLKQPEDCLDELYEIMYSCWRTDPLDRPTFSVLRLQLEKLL

Compound `Cc1nn(-c2ccc(N)cc2)c(C)c1-c1ccc(C(=O)N2CC[C@@H](NC(=O)c3cc(-c4cnn(C)c4)cnc3N)C2)cc1` [Example 520, (R)-2-amino-N-(1-(4-(1-(4-aminophenyl)-3,5-dimethyl-1H-pyrazol-4-yl)benzoyl)pyrrolidin-3-yl)-5-(1-methyl-1H-pyrazol-4-yl)nicotinamide] returned an IC50 of 100 to 1000 nM.

`Cc1nn(C)c(C(F)(F)F)c1-c1ccc(C(=O)N2CC[C@@H](NC(=O)c3cc(-c4cnn(C)c4)cnc3N)C2)cc1` [Example 521, (R)-2-amino-N-(1-(4-(1,3-dimethyl-5-(trifluoromethyl)-1H-pyrazol-4-yl)benzoyl)pyrrolidin-3-yl)-5-(1-methyl-1H-pyrazol-4-yl)nicotinamide] registered an IC50 of 100 to 1000 nM.

Turning to `COc1ccsc1-c1ccc(C(=O)N2CC[C@@H](NC(=O)c3cc(-c4cnn(C)c4)cnc3N)C2)cc1` [Example 524, (R)-2-amino-N-(1-(4-(3-methoxythiophen-2-yl)benzoyl)pyrrolidin-3-yl)-5-(1-methyl-1H-pyrazol-4-yl)nicotinamide], the IC50 lay in the range of 10 to 100 nM.

`CN(C)c1ccc(Oc2ccc(-c3ccc(C(=O)N4CC[C@@H](NC(=O)c5cc(-c6cnn(C)c6)cnc5N)C4)cc3)cc2)cc1` [Example 529, (R)-2-amino-N-(1-(4′-(4-(dimethylamino)phenoxy)-[1,1′-biphenyl]-4-carbonyl)pyrrolidin-3-yl)-5-(1-methyl-1H-pyrazol-4-yl)nicotinamide] displayed an IC50 of 10 to 100 nM.

Turning to `Cn1cc(-c2cnc(N)c(C(=O)N[C@@H]3CCN(C(=O)c4ccc(-c5ccc(Oc6cccc(N)c6)cc5)cc4)C3)c2)cn1` [Example 530, (R)-2-amino-N-(1-(4′-(3-aminophenoxy)-[1,1′-biphenyl]-4-carbonyl)pyrrolidin-3-yl)-5-(1-methyl-1H-pyrazol-4-yl)nicotinamide], the IC50 was 10 to 100 nM.

Compound `Cn1cc(-c2cnc(N)c(C(=O)N[C@@H]3CCN(C(=O)c4ccc(-c5ccc(OC6CCNCC6)cc5)cc4)C3)c2)cn1` [Example 531, (R)-2-amino-5-(1-methyl-1H-pyrazol-4-yl)-N-(1-(4′-(piperidin-4-yloxy)-[1,1′-biphenyl]-4-carbonyl)pyrrolidin-3-yl)nicotinamide] registered an IC50 of 10 to 100 nM.

`Cn1cc(-c2cnc(N)c(C(=O)N[C@@H]3CCN(C(=O)c4ccc(-c5ccc(OC6CCNC6)cc5)cc4)C3)c2)cn1` (stereo partly drawn) [Example 532, 2-amino-5-(1-methyl-1H-pyrazol-4-yl)-N-((3R)-1-(4′-(pyrrolidin-3-yloxy)-[1,1′-biphenyl]-4-carbonyl)pyrrolidin-3-yl)nicotinamide] registered an IC50 of 100 to 1000 nM.

`Cn1cc(-c2cnc(N)c(C(=O)N[C@@H]3CCN(C(=O)c4ccc(-c5ccc(Oc6ccc(N)cc6)cc5F)cc4)C3)c2)cn1` [Example 533, (R)-2-amino-N-(1-(4′-(4-aminophenoxy)-2′-fluoro-[1,1′-biphenyl]-4-carbonyl)pyrrolidin-3-yl)-5-(1-methyl-1H-pyrazol-4-yl)nicotinamide] had an IC50 of 10 to 100 nM.

Compound `Cc1ccc(-c2ccc(C(=O)N3CC[C@@H](NC(=O)c4cc(-c5cnn(C)c5)cnc4N)C3)cc2C)s1` [Example 536, (R)-2-amino-5-(1-methyl-1H-pyrazol-4-yl)-N-(1-(3-methyl-4-(5-methylthiophen-2-yl)benzoyl)pyrrolidin-3-yl)nicotinamide] returned an IC50 of 10 to 100 nM.

`Cn1cc(-c2cnc(N)c(C(=O)N[C@@H]3CCN(C(=O)c4ccc(-c5ccc(C#N)s5)cc4)C3)c2)cn1` [Example 537, (R)-2-amino-N-(1-(4-(5-cyanothiophen-2-yl)benzoyl)pyrrolidin-3-yl)-5-(1-methyl-1H-pyrazol-4-yl)nicotinamide] showed an IC50 of 10 to 100 nM.

In the case of `Cc1noc(C)c1-c1ccc(C(=O)N2CC[C@@H](NC(=O)c3cc(-c4cnn(C)c4)cnc3N)C2)cc1` [Example 539, (R)-2-amino-N-(1-(4-(3,5-dimethylisoxazol-4-yl)benzoyl)pyrrolidin-3-yl)-5-(1-methyl-1H-pyrazol-4-yl)nicotinamide], the IC50 was 100 to 1000 nM.

In turn, `Cn1cc(-c2cnc(N)c(C(=O)N[C@@H]3CCN(C(=O)c4ccc(-c5ccc(O[C@H]6CCNC6)cc5)cc4)C3)c2)cn1` [Example 541, 2-amino-5-(1-methyl-1H-pyrazol-4-yl)-N—((R)-1-(4′-(((S)-pyrrolidin-3-yl)oxy)-[1,1′-biphenyl]-4-carbonyl)pyrrolidin-3-yl)nicotinamide] yielded an IC50 of 10 to 100 nM.

With `CC(O)c1ccc(-c2ccc(C(=O)N3CC[C@@H](NC(=O)c4cc(-c5cnn(C)c5)cnc4N)C3)cc2)s1` (stereo partly drawn) [Example 542, 2-amino-N-((3R)-1-(4-(5-(1-hydroxyethyl)thiophen-2-yl)benzoyl)pyrrolidin-3-yl)-5-(1-methyl-1H-pyrazol-4-yl)nicotinamide], the IC50 lay within 100 to 1000 nM.

Take `CN1CCC(NCc2ccc(-c3ccc(C(=O)N4CC[C@@H](NC(=O)c5cc(-c6cnn(C)c6)cnc5N)C4)cc3)cc2)CC1` [Example 549, (R)-2-amino-5-(1-methyl-1H-pyrazol-4-yl)-N-(1-(4′-(((1-methylpiperidin-4-yl)amino)methyl)-[1,1′-biphenyl]-4-carbonyl)pyrrolidin-3-yl)nicotinamide]: the IC50 lay in the range of 100 to 1000 nM.

As for `CN(C)CCCOc1ccc(-c2ccc(C(=O)N3CC[C@@H](NC(=O)c4cc(-c5cnn(C)c5)cnc4N)C3)cc2)cc1` [Example 551, (R)-2-amino-N-(1-(4′-(3-(dimethylamino)propoxy)-[1,1′-biphenyl]-4-carbonyl)pyrrolidin-3-yl)-5-(1-methyl-1H-pyrazol-4-yl)nicotinamide], the 50% inhibitory concentration (IC50) was in the range of 10 to 100 nM.

Regarding `COc1ccc(-c2cnc(N)c(C(=O)N[C@@H]3CCN(C(=O)c4ccc(-c5ccccc5)cc4)C3)c2)cc1` [Example 555, (R)—N-(1-([1,1′-biphenyl]-4-carbonyl)pyrrolidin-3-yl)-2-amino-5-(4-methoxyphenyl)nicotinamide], the IC50 lay within 100 to 1000 nM.

The compound `Nc1ncc(-c2ccc(N3CCOCC3)cc2)cc1C(=O)N[C@@H]1CCN(C(=O)c2ccc(-c3ccccc3)cc2)C1` [Example 557, (R)—N-(1-([1,1′-biphenyl]-4-carbonyl)pyrrolidin-3-yl)-2-amino-5-(4-morpholinophenyl)nicotinamide] registered an IC50 of 10 to 100 nM.

`CC(C)(C)OC(=O)N1CCC(n2cc(-c3cnc(N)c(C(=O)N[C@@H]4CCN(C(=O)c5ccc(-c6ccccc6)cc5)C4)c3)cn2)CC1` [Example 561, tert-butyl (R)-4-(4-(5-((1-([1,1′-biphenyl]-4-carbonyl)pyrrolidin-3-yl)carbamoyl)-6-aminopyridin-3-yl)-1H-pyrazol-1-yl)piperidine-1-carboxylate] yielded a 50% inhibitory concentration (IC50) of 10 to 100 nM.

Take `CC(C)(c1ccc(-c2cnc(N)c(C(=O)N[C@@H]3CCN(C(=O)c4ccc(-c5ccccc5)cc4)C3)c2)cc1)N1CCNCC1` [Example 564, (R)—N-(1-([1,1′-biphenyl]-4-carbonyl)pyrrolidin-3-yl)-2-amino-5-(4-(2-(piperazin-1-yl)propan-2-yl)phenyl)nicotinamide]: the IC50 is below 10 nM.

In turn, `Nc1ncc(-c2ccc(CN3CCOCC3)cc2)cc1C(=O)N[C@@H]1CCN(C(=O)c2ccc(-c3ccccc3)cc2)C1` [Example 569, (R)—N-(1-([1,1′-biphenyl]-4-carbonyl)pyrrolidin-3-yl)-2-amino-5-(4-(morpholinomethyl)phenyl)nicotinamide] yielded an IC50 of 10 to 100 nM.

For `Nc1ncc(-c2ccc(N3CCOCC3)cc2)cc1C(=O)N[C@@H]1CCN(C(=O)c2ccc(-c3ccccc3Cl)cc2)C1` [Example 571, (R)-2-amino-N-(1-(2′-chloro-[1,1′-biphenyl]-4-carbonyl)pyrrolidin-3-yl)-5-(4-morpholinophenyl)nicotinamide], the IC50 lay within 10 to 100 nM.

As for `Nc1ncccc1C(=O)N[C@@H]1CCN(C(=O)c2ccc(-c3ccc(F)cc3Cl)cc2)C1` [Example 579, (R)-2-amino-N-(1-(2′-chloro-4′-fluoro-[1,1′-biphenyl]-4-carbonyl)pyrrolidin-3-yl)nicotinamide], the IC50 lay in the range of 10 to 100 nM.

`Nc1ncc(-c2ccc(C(=O)NCCCN3CCCC3=O)cc2)cc1C(=O)N[C@@H]1CCN(C(=O)c2ccc(-c3ccccc3Cl)cc2)C1` [Example 595, (R)-2-amino-N-(1-(2′-chloro-[1,1′-biphenyl]-4-carbonyl)pyrrolidin-3-yl)-5-(4-((3-(2-oxopyrrolidin-1-yl)propyl)carbamoyl)phenyl)nicotinamide] came in with an IC50 of 10 to 100 nM.

`Cc1ccc(-c2ccc(C(=O)N3CC[C@@H](Nc4n[nH]c5ncc(-c6cnn(C)c6)cc45)C3)cc2)s1` [Example 615, (R)-(3-((5-(1-methyl-1H-pyrazol-4-yl)-1H-pyrazolo[3,4-b]pyridin-3-yl)amino)pyrrolidin-1-yl)(4-(5-methylthiophen-2-yl)phenyl)methanone]: the IC50 lay within 10 to 100 nM.

For `Cn1cc(-c2cnc3[nH]nc(N[C@@H]4CCN(C(=O)c5ccc(-c6ccccc6)cc5)C4)c3c2)cn1` [Example 616, (R)-[1,1′-biphenyl]-4-yl(3-((5-(1-methyl-1H-pyrazol-4-yl)-1H-pyrazolo[3,4-b]pyridin-3-yl)amino)pyrrolidin-1-yl)methanone], the IC50 was 100 to 1000 nM.

With `Cn1cc(-c2cnc3[nH]nc(N[C@@H]4CCN(C(=O)c5ccc(-c6ccccc6Cl)cc5)C4)c3c2)cn1` [Example 617, (R)-(2′-chloro-[1,1′-biphenyl]-4-yl)(3-((5-(1-methyl-1H-pyrazol-4-yl)-1H-pyrazolo[3,4-b]pyridin-3-yl)amino)pyrrolidin-1-yl)methanone], the IC50 lay within 10 to 100 nM.

As to `Cn1cc(-c2cnc3[nH]nc(N[C@@H]4CCN(C(=O)c5ccc(-c6ccc(Oc7ccc(N)cc7)cc6)cc5)C4)c3c2)cn1` [Example 620, (R)-(4′-(4-aminophenoxy)-[1,1′-biphenyl]-4-yl)(3-((5-(1-methyl-1H-pyrazol-4-yl)-1H-pyrazolo[3,4-b]pyridin-3-yl)amino)pyrrolidin-1-yl)methanone], the IC50 was in the range of 100 to 1000 nM.
